Measured values as given in publication PMC9146942 (International Journal of Molecular Sciences, 2022).
Entries after “also recorded” stand apart in the source; their conditions may differ. Read-outs that look alike come from different tables or passages of the source.

Key:
[1] = system: transduced Dubca cells overexpressing human Panx1; assay: Cell viability (MTT) assay, 24 h exposure, for CC10 determination; conditions: sigmoidal curve fit
[2] = cited from earlier work
[3] = Cell viability (MTT) assay, 45 min exposure in classic buffer; conditions: dromedary camel, transduced Dubca cells overexpressing human Panx1
[4] = system: transduced Dubca cells overexpressing human Panx1; conditions: dromedary camel
[5] = system: Panx1 protein expression; assay: Panx1 protein expression by immunoblot analysis; assay type: cell-based, human; conditions: 24 h exposure, BC, BC/2, BC/10; total Panx1 and glycosylated isoforms
[6] = biological target: T1, human Panx1 channels (Homo sapiens, UniProt Q96RD7); assay: Panx1 channel activity assay (extracellular ATP release after osmotic shock); assay type: cell-based; conditions: for Effect on extracellular ATP release / Panx1 channel activity (in words): 45 min exposure, six concentrations BC/10 to BCx10; for Concentration with significant inhibition of Panx1 channel activity (extracellular ATP release): 45 min exposure (15 min preincubation + 30 min osmotic buffer), combination given as final lopinavir concentration
T1 construct: expressed in transfected cells; host or cells: Dubca cells, transduced, stably overexpressing human Panx1

[7] = system: Panx1 mRNA expression; assay: Panx1 mRNA expression by RT-qPCR analysis; assay type: cell-based, human; conditions: 24 h exposure, BC, BC/2, BC/10
[8] = maximum plasma concentration extracted from literature and recalculated to µM, reference per cell

T1 sequence (Q96RD7 whole entry): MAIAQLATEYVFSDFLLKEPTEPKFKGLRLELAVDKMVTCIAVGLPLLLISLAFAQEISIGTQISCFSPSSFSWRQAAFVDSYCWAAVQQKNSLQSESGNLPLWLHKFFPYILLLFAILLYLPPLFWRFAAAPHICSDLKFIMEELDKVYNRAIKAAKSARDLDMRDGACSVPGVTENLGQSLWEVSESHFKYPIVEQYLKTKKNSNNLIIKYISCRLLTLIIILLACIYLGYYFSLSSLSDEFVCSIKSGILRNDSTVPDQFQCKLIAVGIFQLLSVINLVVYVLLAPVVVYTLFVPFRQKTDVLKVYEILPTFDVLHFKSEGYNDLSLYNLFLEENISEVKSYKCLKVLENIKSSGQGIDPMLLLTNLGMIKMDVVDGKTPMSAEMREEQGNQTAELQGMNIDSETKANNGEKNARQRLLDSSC

Structure (SMILES): CC[C@H]1OC(=O)[C@H](C)[C@@H](O[C@H]2C[C@@](C)(OC)[C@@H](O)[C@H](C)O2)[C@H](C)[C@@H](O[C@@H]2O[C@H](C)C[C@H](N(C)C)[C@H]2O)[C@](C)(O)C[C@@H](C)CN(C)[C@H](C)[C@@H](O)[C@]1(C)O [Azithromycin (dihydrate), azithromycin dihydrate]
- CC10 (concentration inducing 10% of cell death) [1]: 59 µM
- Cmax [2, 8]: 0.52 µM
- viability at 45 min, 590 µM [3]: 74%

Structure (SMILES): CCN(CC)CCCC(C)Nc1ccnc2cc(Cl)ccc12 (stereo not drawn) [Chloroquine (diphosphate), chloroquine diphosphate]
- CC10 (concentration inducing 10% of cell death) [4]: 18 µM
- Cmax [2, 8]: 0.81 µM

Structure (SMILES): C[C@@H]1C[C@H]2[C@@H]3CCC4=CC(=O)C=C[C@]4(C)[C@@]3(F)[C@@H](O)C[C@]2(C)[C@@]1(O)C(=O)CO [Dexamethasone, dexamethasone]
- CC10 (concentration inducing 10% of cell death) [4]: >200 µM
- Cmax [2, 8]: 0.63 µM

Structure (SMILES): NC(=O)c1nc(F)c[nH]c1=O [Favipiravir, favipiravir]
- Effect on Panx1 protein levels [5]: without affecting mRNA or protein levels
- CC10 (concentration inducing 10% of cell death) [1]: >200 µM
- Effect on extracellular ATP release / Panx1 channel activity (in words) [6]: significant decrease in extracellular ATP release; also recorded: inhibit Panx1 channel activity
- Cmax ([2]; in vivo): 53.4 µM
- Effect on Panx1 mRNA levels [7]: without affecting mRNA or protein levels

Structure (SMILES): CCN(CCO)CCCC(C)Nc1ccnc2cc(Cl)ccc12 (stereo not drawn) [Hydroxychloroquine (sulphate), hydroxychloroquine sulphate]
- Effect on Panx1 protein levels [5]: without affecting mRNA or protein levels
- CC10 (concentration inducing 10% of cell death) [1]: 23 µM
- Concentration with significant inhibition of Panx1 channel activity (extracellular ATP release) [6]: 23 µM
- Effect on extracellular ATP release / Panx1 channel activity (in words) ([6]; listed as hydroxychloroquine): inhibit Panx1 channel activity
- Effect on extracellular ATP release / Panx1 channel activity (in words) ([6]; listed as hydroxychloroquine sulphate): significant decrease in extracellular ATP release
- Cmax [2, 8]: 0.97 µM
- Effect on Panx1 mRNA levels [7]: without affecting mRNA or protein levels

Structure (SMILES): Cc1cccc(C)c1OCC(=O)N[C@@H](Cc1ccccc1)[C@@H](O)C[C@H](Cc1ccccc1)NC(=O)[C@H](C(C)C)N1CCCNC1=O [Lopinavir, lopinavir]
- Effect on Panx1 protein levels [5]: without affecting mRNA or protein levels
- CC10 (concentration inducing 10% of cell death) [1]: 17 µM
- Concentration with significant inhibition of Panx1 channel activity (extracellular ATP release) [6]: 85 µM
- Effect on extracellular ATP release / Panx1 channel activity (in words) [6]: significant decrease in extracellular ATP release; also recorded: inhibit Panx1 channel activity
- Effect on Panx1 mRNA levels [7]: without affecting mRNA or protein levels

Structure (SMILES): CCC(CC)COC(=O)[C@H](C)N[P@](=O)(OC[C@H]1O[C@@](C#N)(c2ccc3c(N)ncnn23)[C@H](O)[C@@H]1O)Oc1ccccc1 [Remdesivir]
- CC10 (concentration inducing 10% of cell death) [4]: >100 µM
- Effect on extracellular ATP release / Panx1 channel activity (in words) [6]: comparable concentration-dependent trend
- Cmax [2, 8]: 9.03 µM

Structure (SMILES): CC(C)c1nc(CN(C)C(=O)N[C@H](C(=O)N[C@@H](Cc2ccccc2)C[C@H](O)[C@H](Cc2ccccc2)NC(=O)OCc2cncs2)C(C)C)cs1 [Ritonavir, ritonavir]
- CC10 (concentration inducing 10% of cell death) [1]: 12 µM
- Effect on extracellular ATP release / Panx1 channel activity (in words) [6]: did not decrease extracellular ATP release
- Cmax [2, 8]: 22.5 µM
